From patent US8569339B2, “Soluble guanylate cyclase activators” (Boehringer Ingelheim International GmbH, priority 2011, dated 2013) come the findings set out here.

Data set [1] deals with T1, Recombinant human soluble guanylate cyclase (sGC) (Homo sapiens, UniProt Q02153).
T1 construct: histidine tag (C); made in house; host or cells: Sf9 insect cells (baculovirus coinfection)
Briefly: Molecular assay: activation of heme-free sGC, cGMP detection (CisBio kit). The following applies: 300 pM heme-free sGC, 37° C., 60 minutes, cGMP formation. The data set is classed as biochemical. The method, then: The compounds of the invention may be evaluated in the following molecular assay:
Recombinant human soluble guanylate cyclase (sGC) is purified from Sf9 insect cells coinfected with baculoviruses expressing the alpha 1 or beta 1 subunit of sGC, both with a C-terminal histidine tag. Heme-free sGC is prepared by treating cell lysate with a final concentration of 0.5% Tween 20 prior to purification on a nickel affinity column.
sGC catalyzes the conversion of guanosine-5′-triphosphate (GTP) to cyclic guanosine monophosphate (cGMP). The activity of sGC is measured in vitro using the commercially available CisBio cGMP detection kit (catalog #62GM2PEB) in a 384 well format. In brief, 300 pM heme-free sGC is incubated in reaction buffer (50 mM MOPS pH 6.8, 0.2 N KOH, 50 mM NaCl, 2 mM MgCl2, 0.1% BSA, 1.25 mM IBMX, 0.25 mM TCEP, 50 nM GTP) in the presence or absence of dilutions of test compounds diluted in DMSO (final concentration of 1%) in a volume of 10 microL at 37° C. for 60 minutes. Undiluted reaction products or an 80-fold dilution of reaction products (10 microL of either) prepared in reaction buffer containing 0.2 mM TCEP and 10 mM EDTA is mixed with 5 microL of d2-cGMP plus 5 microL of Eu^3+cryptate-labeled anti-cGMP, each diluted in buffer containing 0.1 M KPO4 pH 7.5, 0.4 M KF, 20 mM EDTA, 0.2% BSA. After a one hour incubation at room temperature in the dark, the mixtures are quantified on an EnVision plate reader (PerkinElmer) according to manufacturer instructions (laser excitation 337 nm, emission 620 and 665 nm). The ratio at each compound concentration is converted to nM cGMP using the linear portion of a calibration curve. Log compound concentration is plotted against combined undiluted and diluted nM cGMP values to determine the EC50 for each curve.
Representative compounds of the present invention were tested for activity in the above assay. Preferred compounds have an IC50<5,000 nM and more preferred compounds have an IC50<100 nM in this assay.

Data set [2] can be described thus: Assessment of solubility (HT solubility, pION, UV). The data set is classed as physicochemical. To be noted: incubated 16-19 hours, 1.0% DMSO, 100 uM; for solubility kinetic: pH 4.5 buffer (pION system solution), pH 4.5, aqueous buffer, kinetic from dmso stock, pH 4.5 buffer, read-out: Sol pH 4.5; for Sol pH 7.4: pH 7.4 buffer. The method, then:
Solubility is measured by the following method.
DMSO stock samples at 10 mM conc are prepared. […] The samples are pierced and 100 ul of thawed samples are transferred into the PCR plate for analysis. Each sample is run in duplicate at each pH (pH 4.5 and 7.4). Up to 95 samples can be run in replicate at 2 pH's+1 DMSO (blank).
2. Preparation of pH 4.5 and 7.4 buffers:
pH 4.5 buffer: To 12.5 of system solution (pION) qs to 500 mL of distilled water (pH 2.85-2.90); adjust the pH to pH 4.5 with 0.5 N NaOH.
pH 7.4 buffer: To 12.5 of system solution (pION) qs to 500 mL of distilled water (pH 2.85-2.90); adjust the pH to pH 7.4 with 0.5N NaOH.
Preparation of UV blank plate:
75 ul of buffer (pH 7.4 or pH 4.5) is added to UV plate followed by addition of […] of N-propanol. The solution is mixed and the blank spectrum is read using spectrophotometer.
Preparation of Reference UV plate:
10 ul of each stock sample (including DMSO control) is added to 190 ul of N-propanol to prepare the reference stock plate. Reference stock samples are mixed and 5 ul of each stock sample is added to UV blank plate after it is read spectrophotometrically. The reference stock sample is mixed with blank solution in UV plate and the reference spectrum is read using UV spectrophotometer.
Preparation of sample for incubation:
Solubility at pH 7.4: 6 ul of each stock sample (including DMSO control) is added to the storage plate containing 600 ul of pH 7.4 buffer, mixed and incubated for 16-19 hours. The plate is sealed well during the incubation process. The DMSO content in the sample is 1.0%. The concn in deep well plates is 100 uM
6 ul of each stock sample (including DMSO control) is added to the deep well plate containing 600 ul of pH 4.5 buffer, mixed and incubated for 16-19 hours. The plate is sealed well during the incubation process. The DMSO content in the sample is 1.0%. The concn in deep well plates is 100 uM
Preparation of sample UV plate:
At the end of the incubation period, 100 uL of sample from the storage plate is vacuum filtered using a filter plate. This step wets the filters and the filtrate is discarded. Another 200 ul of the sample from the deep well plate is vacuum filtered using the same filter block but a clean filter plate. 75 ul of the filtrate from the filter plate is transferred to a UV sample plate. 75 ul of N-propanol is added to this UV plate. The solution is mixed and the spectrum is read using the UV spectrophotometer.
The spectra collected for blank, reference and sample from 250-498 nm is analyzed using pION software. If the sample precipitates out, the solubility is reported as XX μg/ml. If there is no precipitation and the sample is soluble, solubility is reported as […] (YY being the initial concentration of the compound in the sample).

Molecules are shown by their SMILES. ≈ marks a conversion by molar mass, not a printed value.

T1 sequence (Q02108 whole entry partner): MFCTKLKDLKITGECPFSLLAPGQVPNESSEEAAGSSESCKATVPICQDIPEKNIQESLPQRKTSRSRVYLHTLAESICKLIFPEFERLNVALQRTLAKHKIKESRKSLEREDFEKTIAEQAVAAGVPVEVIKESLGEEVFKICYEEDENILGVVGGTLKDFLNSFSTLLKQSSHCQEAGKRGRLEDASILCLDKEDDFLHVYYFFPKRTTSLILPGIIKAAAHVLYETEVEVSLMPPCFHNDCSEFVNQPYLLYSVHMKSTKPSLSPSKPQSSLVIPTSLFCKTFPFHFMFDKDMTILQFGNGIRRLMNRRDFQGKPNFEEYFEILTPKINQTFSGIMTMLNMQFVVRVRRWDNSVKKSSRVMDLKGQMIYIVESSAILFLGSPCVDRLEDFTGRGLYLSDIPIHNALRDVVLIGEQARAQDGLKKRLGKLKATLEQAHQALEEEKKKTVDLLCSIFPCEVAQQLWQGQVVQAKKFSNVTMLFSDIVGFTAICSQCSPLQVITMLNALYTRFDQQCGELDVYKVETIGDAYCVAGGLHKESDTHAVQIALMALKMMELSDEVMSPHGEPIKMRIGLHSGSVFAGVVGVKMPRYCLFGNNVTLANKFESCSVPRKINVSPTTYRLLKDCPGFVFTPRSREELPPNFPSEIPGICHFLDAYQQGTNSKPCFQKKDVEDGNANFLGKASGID
T1 sequence (Q02153 whole entry): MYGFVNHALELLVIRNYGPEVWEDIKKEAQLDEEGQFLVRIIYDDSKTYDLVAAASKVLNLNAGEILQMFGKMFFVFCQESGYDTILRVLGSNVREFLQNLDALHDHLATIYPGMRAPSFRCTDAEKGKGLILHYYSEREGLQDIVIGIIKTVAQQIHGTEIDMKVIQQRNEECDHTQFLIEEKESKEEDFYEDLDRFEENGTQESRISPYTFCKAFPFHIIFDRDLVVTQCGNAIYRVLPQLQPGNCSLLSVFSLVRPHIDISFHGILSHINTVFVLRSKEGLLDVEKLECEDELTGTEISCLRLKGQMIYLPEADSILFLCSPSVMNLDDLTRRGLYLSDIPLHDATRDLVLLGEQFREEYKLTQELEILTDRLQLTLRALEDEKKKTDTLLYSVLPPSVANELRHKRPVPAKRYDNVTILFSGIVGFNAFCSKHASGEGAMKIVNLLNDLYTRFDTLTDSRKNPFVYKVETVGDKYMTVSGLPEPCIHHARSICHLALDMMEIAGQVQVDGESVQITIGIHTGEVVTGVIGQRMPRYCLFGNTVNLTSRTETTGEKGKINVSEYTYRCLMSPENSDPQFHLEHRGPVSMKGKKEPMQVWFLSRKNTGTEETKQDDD

The EC50 is the concentration needed to bring the measured effect to its halfway point. For the compound `Cc1ccc(OCc2ccc3c(c2)CCN(S(=O)(=O)CC(=O)O)C3)c(-c2cccc(-n3ncc(C(=O)O)c3C(F)(F)F)n2)c1` [Compound 1], in data set [1], the EC50 was 148 nM. In addition, in data set [2], the solubility kinetic was more than 62 µg/mL and the “Sol pH 7.4” value was more than 62 μg/mL.

`Cc1ccc(OCc2ccc3c(c2)CCN(C)C3)c(-c2cccc(-n3ncc(C(=O)O)c3C(F)(F)F)n2)c1` [Compound 2, 1-{6-[5-methyl-2-(2-methyl-1,2,3,4-tetrahydroisoquinolin-6-ylmethoxy)phenyl]pyridin-2-yl}-5-trifluoromethyl-1H-pyrazole-4-carboxylic acid]: the concentration for a half-maximal effect (EC50) in data set [1] came to 46 nM. Also, in data set [2], the solubility kinetic turned out to be 6.5 µg/mL (≈ 12.4 µM) and the “Sol pH 7.4” value is on record as 6.1 μg/mL.

`Cc1ccc(OCc2ccc3c(c2)CCN(S(=O)(=O)CCCC(=O)O)C3)c(-c2cccc(-n3ncc(C(=O)O)c3C(F)(F)F)n2)c1` [Compound 3, 1-(6-{2-[2-(3-carboxypropane-1-sulfonyl)-1,2,3,4-tetrahydroisoquinolin-6-ylmethoxy]-5-methylphenyl}pyridin-2-yl)-5-trifluoromethyl-1H-pyrazole-4-carboxylic acid]: in data set [1], the EC50 is 27 nM. For the same compound, in data set [2], the solubility kinetic is 0.8 µg/mL (≈ 1.21 µM) and the “Sol pH 7.4” value is given as more than 65 μg/mL.

As to `Cc1ccc(OCc2ccc3c(c2)CCNC3)c(-c2cccc(-n3ncc(C(=O)O)c3C(F)(F)F)n2)c1` [Compound 4, 1-{6-[5-Methyl-2-(1,2,3,4-tetrahydroisoquinolin-6-ylmethoxy)phenyl]pyridin-2-yl}-5-trifluoromethyl-1H-pyrazole-4-carboxylic acid], the 50% effective concentration (EC50) in data set [1] came out at 575 nM. Besides, in data set [2], the solubility kinetic was 17.6 µg/mL (≈ 34.6 µM) and the “Sol pH 7.4” value is 21.7 μg/mL.

As to `Cc1ccc(OCc2ccc3c(c2)CCN(S(C)(=O)=O)C3)c(-c2cccc(-n3ncc(C(=O)O)c3C(F)(F)F)n2)c1` [Compound 5], in data set [1], the 50% effective concentration (EC50) is 33 nM. In data set [2], the solubility kinetic turned out to be 0.1 µg/mL (≈ 0.17 µM) and the “Sol pH 7.4” value was more than 58 μg/mL.

Consider `CC(=O)N1CCc2cc(COc3ccc(C)cc3-c3cccc(-n4ncc(C(=O)O)c4C(F)(F)F)n3)ccc2C1` [Compound 6, 1-{6-[2-(2-acetyl-1,2,3,4-tetrahydroisoquinolin-6-ylmethoxy)-5-methylphenyl]pyridin-2-yl}-5-trifluoromethyl-1H-pyrazole-4-carboxylic acid], for which the EC50 in data set [1] stood at 78 nM. In data set [2], the solubility kinetic turned out to be 0.5 µg/mL (≈ 0.908 µM) and the “Sol pH 7.4” value is more than 54 μg/mL.

With `Cc1ccc(OCc2ccc3snnc3c2)c(-c2cccc(-n3ncc(C(=O)O)c3C(F)(F)F)n2)c1` [Compound 7, 1-{6-[2-(benzo[1,2,3]thiadiazol-5-ylmethyoxy)-5-methylphenyl]pyridin-2-yl}-5-trifluoromethyl-1H-pyrazole-4-carboxylic acid], the EC50 in data set [1] amounted to 490 nM. In addition, in data set [2], the solubility kinetic was 2.1 µg/mL (≈ 4.11 µM) and the “Sol pH 7.4” value is more than 51 μg/mL.

With `Cc1ccc(OCc2ccc3c(c2)CCN(C)C3=O)c(-c2cccc(-n3ncc(C(=O)O)c3C(F)(F)F)n2)c1` [Compound 8], the concentration for a half-maximal effect (EC50) in data set [1] stood at 280 nM. In data set [2], the solubility kinetic turned out to be 6.9 µg/mL (≈ 12.9 µM) and the “Sol pH 7.4” value is more than 53 μg/mL.

As to `Cc1ccc(OCc2ccc3c(c2)CCN3S(C)(=O)=O)c(-c2cccc(-n3ncc(C(=O)O)c3C(F)(F)F)n2)c1` [Compound 9, 1-{6-[2-(1-methanesulfonyl-2,3-dihydro-1H-indol-5-ylmethyoxy)-5-methylphenyl]pyridin-2-yl}-5-trifluoromethyl-1H-pyrazole-4-carboxylic acid], the EC50 in data set [1] was 67 nM. For the same compound, in data set [2], the solubility kinetic came to 0.4 µg/mL (≈ 0.699 µM) and the “Sol pH 7.4” value is given as more than 54 μg/mL.

As for `Cc1ccc(OCc2ccc3c(c2)nnn3C)c(-c2cccc(-n3ncc(C(=O)O)c3C(F)(F)F)n2)c1` [Compound 10], the concentration for a half-maximal effect (EC50) in data set [1] came to 280 nM. In data set [2], the solubility kinetic was determined as 0.95 µg/mL (≈ 1.87 µM) and the “Sol pH 7.4” value is reported as more than 50 μg/mL.

Turning to `Cc1ccc(OCc2ccc3c(c2)CCN(C2CC2)C3)c(-c2cccc(-n3ncc(C(=O)O)c3C(F)(F)F)n2)c1` [Compound 12], in data set [1], the concentration for a half-maximal effect (EC50) came to 19 nM. In data set [2], the solubility kinetic was more than 54 µg/mL and the “Sol pH 7.4” value was more than 54 μg/mL.

In the case of `Cc1ccc(OCc2ccc3c(c2)N(C)CCC3)c(-c2cccc(-n3ncc(C(=O)O)c3C(F)(F)F)n2)c1` [Compound 13], the concentration for a half-maximal effect (EC50) in data set [1] stood at 79 nM. In data set [2], the solubility kinetic was 8.1 µg/mL (≈ 15.5 µM) and the “Sol pH 7.4” value was more than 52 μg/mL.

Consider `Cc1ccc(OCc2ccc3c(c2C)CCN(CC2CCOC2)C3)c(-c2cccc(-c3csc(C(=O)O)c3C)n2)c1` (centres unmarked) [Compound 14], for which the EC50 in data set [1] turned out to be 11 nM. For the same compound, in data set [2], the solubility kinetic is more than 79 µg/mL and the “Sol pH 7.4” value came out at 44.4 μg/mL.

As for `Cc1ccc(OCc2ccc3c(c2)CCN(C2CCC2)C3)c(-c2cccc(-n3ncc(C(=O)O)c3C(F)(F)F)n2)c1` [Compound 16], in data set [1], the EC50 turned out to be 33 nM. Besides, in data set [2], the solubility kinetic was more than 67 µg/mL and the “Sol pH 7.4” value was more than 67 μg/mL.

In the case of `Cc1ccc(OCc2ccc3c(c2)CCN(C2CCCC2)C3)c(-c2cccc(-n3ncc(C(=O)O)c3C(F)(F)F)n2)c1` [Compound 17], the concentration giving a half-maximal response (EC50) in data set [1] is 13 nM. In data set [2], the solubility kinetic was determined as 44.3 µg/mL (≈ 76.8 µM) and the “Sol pH 7.4” value is reported as more than 68 μg/mL.

Consider `Cc1ccc(OCc2ccc3c(c2)CCN(Cc2ccccn2)C3)c(-c2cccc(-n3ncc(C(=O)O)c3C(F)(F)F)n2)c1` [Compound 18], for which the EC50 in data set [1] was determined as 0.8 nM. Also, in data set [2], the solubility kinetic is more than 59 µg/mL and the “Sol pH 7.4” value is listed as more than 59 μg/mL.

For the compound `Cc1ccc(OCc2ccc3c(c2)CCN(C2CCCCC2)C3)c(-c2cccc(-n3ncc(C(=O)O)c3C(F)(F)F)n2)c1` [Compound 19], the 50% effective concentration (EC50) in data set [1] was 2 nM. In data set [2], the solubility kinetic was more than 58 µg/mL and the “Sol pH 7.4” value was more than 58 μg/mL.

For `Cc1ccc(OCc2ccc3c(c2)CCN(CCc2ccccc2)C3)c(-c2cccc(-n3ncc(C(=O)O)c3C(F)(F)F)n2)c1` [Compound 20], the EC50 in data set [1] stood at 4 nM. For the same compound, in data set [2], the solubility kinetic stood at 7.8 µg/mL (≈ 12.7 µM) and the “Sol pH 7.4” value was 10.7 μg/mL.

In the case of `Cc1cccc(-c2cccc(-c3ncc(C(=O)O)n3C)n2)c1OCc1ccc2c(c1)CCN(CC1CCOCC1)C2` [Compound 68], the EC50 in data set [1] came to 180 nM.

With `Cc1csc(CN2CCc3cc(COc4c(C)cccc4-c4cccc(-c5ncc(C(=O)O)n5C)n4)ccc3C2)n1` [Compound 69], in data set [1], the EC50 worked out at 8 nM.
